The test concerns β-catenin-TCF-mediated reporter transcription activity in Colo 205 cells. Briefly: Colo 205 reporter assay (TCF/LEF luciferase). Type of test: cell-based. The settings on record: Colo 205 TCF/LEF luciferase reporter, five hours after addition of compound, read-out: TCF reporter Colo205 IC50. An outline of the steps: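 Luciferase signal from a TCF/LEF-driven reporter, stably integrated in Colo 205 colon cancer cells, was measured 5 h after compound addition.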
A general note: A reporter such as luciferase makes a cellular process visible.

Read-outs that look alike come from different tables or passages of the source.

In general, IC50 refers to the concentration needed to halve the response being measured. Regarding `Cc1cnc(C(F)(F)F)nc1-n1cc(CNc2nc(C)c3c(n2)N(C)[C@@H](C)C(=O)N3)cn1` [Compound 161, (7S)-4,7,8-trimethyl-2-(((1-(5-methyl-2-(trifluoromethyl)pyrimidin-4-yl)-1H-pyrazol-4-yl)methyl)amino)-7,8-dihydropteridin-6(5H)-one], for the setting “Homo sapiens, COLO 205, 5 h”, the IC50 lay in the range of 300 to 1000 nM.

For `Cc1nc(NCc2cnn(Cc3ncc(F)cn3)c2)nc2c1NC(=O)[C@H](C)N2C` [Compound 162, (7S)-2-(((1-((5-fluoropyrimidin-2-yl)methyl)-1H-pyrazol-4-yl)methyl)amino)-4,7,8-trimethyl-7,8-dihydropteridin-6(5H)-one], the IC50 (Homo sapiens, COLO 205, 5 h) is no less than 5000 nM.

For the compound `C[C@H]1C(=O)Nc2cnc(NCc3cnn(Cc4ncc(F)cn4)c3)nc2N1C` [Compound 165, (7S)-2-(((1-((5-fluoropyrimidin-2-yl)methyl)-1H-pyrazol-4-yl)methyl)amino)-7,8-dimethyl-7,8-dihydropteridin-6(5H)-one], the IC50 (Homo sapiens, COLO 205, 5 h) is no less than 5000 nM.

In the case of `Cc1ncc(Cn2cc(CNc3ncc4c(n3)N(C)[C@@H](C)C(=O)N4)cn2)cn1` [Compound 166, (7S)-7,8-dimethyl-2-(((1-((2-methylpyrimidin-5-yl)methyl)-1H-pyrazol-4-yl)methyl)amino)-7,8-dihydropteridin-6(5H)-one], the IC50 (Homo sapiens, COLO 205, 5 h) is no less than 5000 nM.

`Cc1cc(OC(C)(C)C)ncc1Cn1cc(CNc2nc(C)c3c(n2)N(C)[C@@H](C)C(=O)N3)cn1` [Compound 167, (7S)-2-(((1-((6-(tert-butoxy)-4-methylpyridin-3-yl)methyl)-1H-pyrazol-4-yl)methyl)amino)-4,7,8-trimethyl-7,8-dihydropteridin-6(5H)-one]: the IC50 (Homo sapiens, COLO 205, 5 h) was less than 300 nM.

In the case of `Cc1cc(OC(C)C)ncc1Cn1cc(CNc2nc(C)c3c(n2)N(C)[C@@H](C)C(=O)N3)cn1` [Compound 168, (7S)-2-(((1-((6-isopropoxy-4-methylpyridin-3-yl)methyl)-1H-pyrazol-4-yl)methyl)amino)-4,7,8-trimethyl-7,8-dihydropteridin-6(5H)-one], the IC50 (Homo sapiens, COLO 205, 5 h) is less than 300 nM.

Take `Cc1nc(NCc2ccc(OC3CCN(c4ccc(F)cc4)C3)nc2)nc2c1NC(=O)[C@H](C)N2C` (stereo partly drawn) [Compound 169, (7S)-2-(((6-((1-(4-fluorophenyl)pyrrolidin-3-yl)oxy)pyridin-3-yl)methyl)amino)-4,7,8-trimethyl-7,8-dihydropteridin-6(5H)-one]: the half-maximal inhibitory concentration (IC50) (Homo sapiens, COLO 205, 5 h) is less than 300 nM.

For the compound `Cc1nc(NCc2cnn([C@H]3CCN(c4ccc(F)cc4)C3)c2)nc2c1NC(=O)[C@H](C)N2C` [Compound 171, (7S)-2-(((1-((S)-1-(4-fluorophenyl)pyrrolidin-3-yl)-1H-pyrazol-4-yl)methyl)amino)-4,7,8-trimethyl-7,8-dihydropteridin-6(5H)-one], the IC50 (Homo sapiens, COLO 205, 5 h) was less than 300 nM.

Regarding `Cc1nc(NCc2cnn([C@H](C)c3ccc(C(F)(F)F)nc3)c2)nc2c1NC(=O)[C@H](C)N2C` [Compound 175, (7S)-4,7,8-Trimethyl-2-(((1-((R)-1-(6-(trifluoromethyl)pyridin-3-yl)ethyl)-1H-pyrazol-4-yl)methyl)amino)-7,8-dihydropteridin-6(5H)-one], the concentration for half-maximal inhibition (IC50) (Homo sapiens, COLO 205, 5 h) was less than 300 nM.

In the case of `Cc1nc(NCc2cnn(Cc3ccc(C#N)nc3)c2)nc2c1NC(=O)[C@H](C)N2C` [Compound 176, (7S)-5-((4-(((4,7,8-trimethyl-6-oxo-5,6,7,8-tetrahydropteridin-2-yl)amino)methyl)-1H-pyrazol-1-yl)methyl)picolinonitrile], the IC50 (Homo sapiens, COLO 205, 5 h) lay in the range of 300 to 1000 nM.

Take `Cc1nc(NCc2cnn(Cc3ccc(C(F)(F)F)nc3)c2)nc2c1N(C)C(=O)[C@H](C)N2C` [Compound 177, (7S)-4,5,7,8-tetramethyl-2-(((1-((6-(trifluoromethyl)pyridin-3-yl)methyl)-1H-pyrazol-4-yl)methyl)amino)-7,8-dihydropteridin-6(5H)-one]: the IC50 (Homo sapiens, COLO 205, 5 h) is less than 300 nM.

Consider `Cc1cc(Cn2cc(CNc3nc(C)c4c(n3)N(C)[C@@H](C)C(=O)N4)cn2)ccn1` [Compound 178, (7S)-4,7,8-trimethyl-2-(((1-((2-methylpyridin-4-yl)methyl)-1H-pyrazol-4-yl)methyl)amino)-7,8-dihydropteridin-6(5H)-one], for which, for the setting “Homo sapiens, COLO 205, 5 h”, the IC50 lay in the range of 1000 to 5000 nM.

Consider `Cc1nc(NCc2cnn(C3CCN(c4cc(F)cc(F)c4)CC3)c2)nc2c1NC(=O)[C@H](C)N2C` [Compound 179, (7S)-2-(((1-(1-(3,5-difluorophenyl)piperidin-4-yl)-1H-pyrazol-4-yl)methyl)amino)-4,7,8-trimethyl-7,8-dihydropteridin-6(5H)-one], for which the IC50 (Homo sapiens, COLO 205, 5 h) is less than 300 nM.

`Cc1nc(NCc2cnn(Cc3ccnc(F)c3)c2)nc2c1NC(=O)[C@H](C)N2C` [Compound 180, (7S)-2-(((1-((2-fluoropyridin-4-yl)methyl)-1H-pyrazol-4-yl)methyl)amino)-4,7,8-trimethyl-7,8-dihydropteridin-6(5H)-one]: where the note is “Homo sapiens, COLO 205, 5 h”, the IC50 is less than 300 nM.

For `Cc1nc(NCc2cnn(Cc3ccc4c(c3)OCO4)c2)nc2c1NC(=O)[C@H](C)N2C` [Compound 181, (7S)-2-(((1-(benzo[d][1,3]dioxol-5-ylmethyl)-1H-pyrazol-4-yl)methyl)amino)-4,7,8-trimethyl-7,8-dihydropteridin-6(5H)-one], where the note is “Homo sapiens, COLO 205, 5 h”, the concentration for half-maximal inhibition (IC50) is less than 300 nM.

On to `Cc1nc(NCc2cnn(Cc3cnccc3C(F)(F)F)c2)nc2c1NC(=O)[C@H](C)N2C` [Compound 182, (7S)-4,7,8-trimethyl-2-(((1-((4-(trifluoromethyl)pyridin-3-yl)methyl)-1H-pyrazol-4-yl)methyl)amino)-7,8-dihydropteridin-6(5H)-one], for which the IC50 (Homo sapiens, COLO 205, 5 h) was less than 300 nM.

Regarding `Cc1nc(NCc2cnn(Cc3cccnc3C(F)(F)F)c2)nc2c1NC(=O)[C@H](C)N2C` [Compound 183], the IC50 was less than 300 nM.

As for `Cc1nc(NCc2cnn(Cc3cccc(C(F)(F)F)n3)c2)nc2c1NC(=O)[C@H](C)N2C` [Compound 184, (7S)-4,7,8-trimethyl-2-(((1-((6-(trifluoromethyl)pyridin-2-yl)methyl)-1H-pyrazol-4-yl)methyl)amino)-7,8-dihydropteridin-6(5H)-one], the IC50 (Homo sapiens, COLO 205, 5 h) was less than 300 nM.

As to `Cc1nc(NCc2cnn(Cc3ccnc(Cl)c3)c2)nc2c1NC(=O)[C@H](C)N2C` [Compound 185, (7S)-2-(((1-((2-chloropyridin-4-yl)methyl)-1H-pyrazol-4-yl)methyl)amino)-4,7,8-trimethyl-7,8-dihydropteridin-6(5H)-one], the IC50 (Homo sapiens, COLO 205, 5 h) was 300 to 1000 nM.

As for `Cc1nc(NCc2cnn(Cc3ccncc3C(F)(F)F)c2)nc2c1NC(=O)[C@H](C)N2C` [Compound 187, (7S)-4,7,8-trimethyl-2-(((1-((3-(trifluoromethyl)pyridin-4-yl)methyl)-1H-pyrazol-4-yl)methyl)amino)-7,8-dihydropteridin-6(5H)-one], under “Homo sapiens, COLO 205, 5 h”, the IC50 was less than 300 nM.

`CCn1nc(C(F)(F)F)cc1Cn1cc(CNc2nc(C)c3c(n2)N(C)[C@@H](C)C(=O)N3)cn1` [Compound 189, (7S)-2-(((1-((1-ethyl-3-(trifluoromethyl)-1H-pyrazol-5-yl)methyl)-1H-pyrazol-4-yl)methyl)amino)-4,7,8-trimethyl-7,8-dihydropteridin-6(5H)-one]: the IC50 (Homo sapiens, COLO 205, 5 h) was less than 300 nM.

With `Cc1nc(NCc2cnn(Cc3cc(C(F)(F)F)n(C)n3)c2)nc2c1NC(=O)[C@H](C)N2C` [Compound 190, (7S)-4,7,8-trimethyl-2-(((1-((1-methyl-5-(trifluoromethyl)-1H-pyrazol-3-yl)methyl)-1H-pyrazol-4-yl)methyl)amino)-7,8-dihydropteridin-6(5H)-one], the 50% inhibitory concentration (IC50) (Homo sapiens, COLO 205, 5 h) was 300 to 1000 nM.

Source of the values: patent US20230312587A1, “PTERIDINONE COMPOUNDS AND USES THEREOF” (Vertex Pharmaceutical Incorporated, priority 2018, published 2023).
